# Assay results reported in patent publication US10508309B2, “Methods for detecting and treating variants of seborrheic keratoses” (THE GENERAL HOSPITAL CORPORATION, priority 2013, dated 2019).
# System: SK
# Assay: Response to A44/puro (summary of features for KA, SK, and SCC)
# Details: seborrheic keratosis (SK) column; the KA and SCC cells print "?"
smiles,measurement,value
"COc1ccc(C[C@H](N)C(=O)N[C@H]2[C@@H](O)[C@H](n3cnc4c(N(C)C)ncnc43)O[C@@H]2CO)cc1 [puro, puromycin]",Response to A44/puro?,Yes
